Entries after “also recorded” stand apart in the source; their conditions may differ.
What was measured:
[1] = systemic cotinine; cited from earlier work
[2] = Example 1: nicotine pharmacokinetics after IV, oral and rectal enema administration in healthy volunteers
Procedure: Intravenous nicotine was prepared using a nicotine base, supplied as the tartrate salt (Fisher Scientific/Eastman Kodak Company, Rochester, N.Y.). Solutions for injection were made up by combining 1.5 mg nicotine base (4.44 mg tartrate salt) in 100 ml of 0.9% sterile normal saline to form a 15 mcg/mL solution. The intravenous solution was filtered through a 0.22 micron filter into a sterile container and under sterile conditions. The solution was then cultured for organisms, assayed for endotoxin, and chemically analyzed prior to infusion to assure stable nicotine concentration. These samples were then be stored in sealed vials until the time of administration.
Thirty paid human volunteers were admitted to the pharmacokinetic study after giving informed consent to a protocol approved by the institutional review board at the Mayo Clinic, Rochester, Minn. The subjects ranged in age from 21-56 and their body weights ranged from 45 to 153 Kg. […]
Each subject underwent 2 investigations (IV and non-IV) of 8 hours duration at least 1 week apart. […] Plasma concentrations of nicotine were determined by gas chromatography/mass spectrometry as described by Baskin et al. (Clin. Chem., 31:76-80 (1991)).
For this study, the maximum plasma nicotine concentration (Cmax) and the time to reach Cmax (Tmax) were defined as the highest measured plasma concentrations and the time of the sample, respectively.

clinical = settings: in vivo
[3] = in vivo
[4] = Benowitz et al., cited from earlier work
[5] = nicotine base; cited from earlier work
[6] = gum and patch papers; cited from earlier work
[7] = Example 1: side effects (questionnaire) versus plasma nicotine concentration; type: in vivo, human
Procedure: Intraindividual side effects occurred during each study, as determined by a questionnaire filled out every 30 minutes, closely correlated with plasma nicotine concentrations. However, the threshold above which symptoms appeared varied from individual to individual with the nicotine concentration at which side effects first appeared ranging from 2.4 ng/mL to 9.9 ng/mL (although some subjects had nicotine concentrations of >11 ng/mL without symptoms).

[8] = cited from earlier work

SMILES | activity relative to nicotine [1] | bioavailability / tolerability in words [2] | Fa (clinical) [%] | combination with 5-ASA, sulphasalazine, corticosteroids or budesonide [3] | efficacy compared with high dosage transdermal patch [3] | remission (clinical response) [3] | mean bioavailability for the oral dose [4] | CLb ([4]; IV, heavy smokers) | T1/2 ([4]; IV, heavy smokers) | Vdss ([4]; IV, heavy smokers) | absorption through mucous membranes and skin [5] | general side effects of nicotine administration [6] | nicotine concentration without symptoms ([7]; some subjects) [ng/mL] | side effects observed ([7]; when side effects occurred, variable frequency) | effect on mucus ([8]; colonic mucus synthesis) | effect on rectal blood flow ([8]; patients with ulcerative colitis) | effect on mucosal production of eicosanoids ([8]; prostaglandin E, 6-keto-PGF1a, leukotrienes) | mucus thickness ([8]; rabbits, high doses, versus controls)
CN1C(=O)CC[C@H]1c1cccnc1 [cotinine] | less active metabolite than nicotine | – | – | – | – | – | – | – | – | – | – | – | – | – | – | – | – | –
CN1CCCC1c1cccnc1 (stereo not drawn) [nicotine] | – | low bioavailability and was well tolerated; also recorded: low or negligible bioavailability and was well tolerated | ~20 | appears to show a synergistic effect | at least as efficacious as high dosage transdermal patch | up to 70% | 44 (9%) | 66 (8 L/hr) | 203 (61 min.) | 3.0 (0.7 L/Kg) | readily absorbed through mucous membranes and intact skin | nausea, vomiting, headaches, insomnia, somnolence, diaphoresis, pre-syncope and tremor | > 11 | nausea, lightheadedness, and diaphoresis | appears to increase mucus synthesis to levels observed in healthy subjects | can reduce rectal blood flow to the normal range | appears to reduce mucosal production of eicosanoids | greater mucus thickness as compared to controls
